Experimental data: patent publication US20230322657A1, “CRYSTALLINE EDG-2 RECEPTOR ANTAGONIST AND METHODS OF MAKING” (Sanofi, priority 2020, published 2023)
Converted amounts (≈) assume the structure as drawn.

What was measured:
[1] = system: mouse model of skin fibrosis; conditions: cited from earlier work
[2] = system: patients with diffuse cutaneous systemic sclerosis SSc (dcSSc); conditions: cited from earlier work
[3] = Estimated hot solubility in solvents at elevated temperature (approximately solvent boiling point); format: physicochemical
Description: Compound I was dissolved in a variety of solvents at elevated temperature (approximately at solvent boiling point) to provide solutions of Compound I with a maximum concentration of 15 mg/mL. The input material in these experiments was a mixture of polymorphic forms 1, 2, and 3.
When concentrations of Compound I was greater than 2 mg/mL, the solutions were filtered and evaporated at 25° C. to isolate the solid.

[4] = Slurry conversion study at 40-70° C., Form 1/Form 2 1:1 mixture; format: physicochemical
Description: Slurry converstion studies were also conducted at 40-70° C. with Forms 1 and 2 to determine a transition temperature between the forms. A mixture of Form 1 and Form 2 at a (1:1 ratio) was slurried at 40° C., 50° C., 60° C., and 70° C. in two different solvents at each temperature and then analyzed to determine the direction of transformation. At 40° C. and 50° C., Methanol and MEK were used. At 60° C. and 70° C. MEK and 1-Pentanol were used.

[5] = Slurry stability study at room temperature (25° C.), 4 weeks, analysis by FTIR; format: physicochemical; conditions: for Final form after slurry: 25° C., 4 weeks, FTIR
Description: Slurry stability Maturation studies were initially conducted for the purpose of identifying the most […] stable form at room temperature (25° C.
In this set of experiments, both the individual forms and mixtures of forms were slurried in several solvents for 4 weeks, then filtered and analyzed to determine the resulting form. The first set of experiments included pure Form 1, Form 2, Form 3, and mixtures of these forms in equal amounts. The solvents included methanol, ethyl acetate, MEK, and methyl THF in order to investigate a range of solvent polarity. Additional experiments were conducted with a mixture of Form 1 and Form 4 in MEK and methanol.
Analysis was performed by FTIR due to ease of analysis for small quantities. It is interesting to note that the acid carbonyl is shifted to a different location for each polymorph. The results for the first set of experiments are listed below, comparing the starting form with the final form.

[6] = Dynamic vapor sorption (DVS); format: physicochemical; conditions: 25° C.
Description: Moisture sorption/desorption isotherms are recorded on a DVS-1 from SURFACE MEASUREMENT SYSTEMS. Two cycles are run at 25° C., in which the Relative Humidity (RH) is stepped from 0 to 95% and back to 0%. The data is evaluated with the software DVSWin V. 2.15.

[7] = Solubility of polymorphs at pH 7.4 in phosphate buffer at 25° C.; format: physicochemical; conditions: pH 7.4 phosphate buffer; for Solubility, concentration (equilibrium): 24 hr
Description: The solubility of the different polymorphs was determined at pH 7.4 in phosphate buffer at 25° C. Samples were analyzed as a function of time for each form to determine the equilibrium values. The residual solids from each sample were analyzed to verify that the form was unchanged during the experiment. The concentration (mg/mL) versus time data is listed below for each form: […]

COc1ccc(C(=O)NC2(C(=O)O)Cc3ccccc3C2)cc1OCCc1cccc(C)c1 [Compound I, 2-(4-methoxy-3-(3-methylphenethoxy)benzamido)-2,3-dihydro-1H-indene-2-carboxylic acid]
Collagen content [1]: reduced | Dermal thickening [1]: reversed | Myofibroblast differentiation [1]: significantly inhibited | Outcome measures [2]: improved | Target engagement [2]: demonstrated | Hot Solubility (est) ([3]; 1-Butanol): >10 mg/mL | Hot Solubility (est) ([3]; 1-Pentanol): >10 mg/mL | Hot Solubility (est) ([3]; Acetone): >10 mg/mL | Hot Solubility (est) ([3]; Ethanol): >10 mg/mL | Hot Solubility (est) ([3]; Hexane): <2 mg/mL | Hot Solubility (est) ([3]; Isobutyl Alcohol): >10 mg/mL | Hot Solubility (est) ([3]; Methanol): >10 mg/mL | Hot Solubility (est) ([3]; Water): <2 mg/mL

COc1ccc(C(=O)NC2(C(=O)O)Cc3ccccc3C2)cc1OCCc1cccc(C)c1 [mixture of Form 1 and Form 2]
Form after slurry (direction of transformation) ([4]; 1-Pentanol, 60° C.): Form 2 | Form after slurry (direction of transformation) ([4]; 1-Pentanol, 70° C.): Form 2 | Form after slurry (direction of transformation) ([4]; MEK, 40° C.): Form 1 | Form after slurry (direction of transformation) ([4]; MEK, 50° C.): Form 1 | Form after slurry (direction of transformation) ([4]; MEK, 60° C.): Form 2 | Form after slurry (direction of transformation) ([4]; MEK, 70° C.): Form 2 | Form after slurry (direction of transformation) ([4]; Methanol, 40° C.): Form 1 | Form after slurry (direction of transformation) ([4]; Methanol, 50° C.): Form 1

COc1ccc(C(=O)NC2(C(=O)O)Cc3ccccc3C2)cc1OCCc1cccc(C)c1 [Form 1, 2-(4-methoxy-3-(3-methylphenethoxy)benzamido)-2,3-dihydro-1H-indene-2-carboxylic acid]
Final form after slurry ([5]; Ethyl Acetate): Form 1 | Final form after slurry ([5]; MEK): Form 1 | Final form after slurry ([5]; Methanol): Form 1 | Final form after slurry ([5]; Methyl THF): Form 1 | Relative stability of the crystal forms ([5]; room temperature (25° C.)): most stable form | Reversible water uptake (bound) [6]: less than 1% | Reversible water uptake ([6]; between 0 and 95% RH): ~−0.1 % w/w

COc1ccc(C(=O)NC2(C(=O)O)Cc3ccccc3C2)cc1OCCc1cccc(C)c1 [Forms 1, 2, 3]
Final form after slurry ([5]; MEK): Form 1 | Final form after slurry ([5]; Methanol): Form 1 | Final form after slurry ([5]; Methyl THF): Form 1

COc1ccc(C(=O)NC2(C(=O)O)Cc3ccccc3C2)cc1OCCc1cccc(C)c1 [Form 4, 2-(4-methoxy-3-(3-methylphenethoxy)benzamido)-2,3-dihydro-1H-indene-2-carboxylic acid]
Equilibrium solubility at 24 hours compared with Form 1 [7]: more than double | Solubility, concentration (equilibrium) [7]: 0.102 mg/mL (≈ 229 µM)

COc1ccc(C(=O)NC2(C(=O)O)Cc3ccccc3C2)cc1OCCc1cccc(C)c1 [mixtures of Form 4 and Form 1]
Final form after slurry ([5]; MEK): Form 1 | Final form after slurry ([5]; Methanol): Form 1

COc1ccc(C(=O)NC2(C(=O)O)Cc3ccccc3C2)cc1OCCc1cccc(C)c1 [Form 3, 2-(4-methoxy-3-(3-methylphenethoxy)benzamido)-2,3-dihydro-1H-indene-2-carboxylic acid]
Equilibrium solubility at 24 hours compared with Form 1 [7]: more than double | Solubility, concentration (equilibrium) [7]: 0.097 mg/mL (≈ 218 µM) | Final form after slurry ([5]; Ethyl Acetate): Form 1 | Final form after slurry ([5]; MEK): Form 1 | Final form after slurry ([5]; Methanol): Form 1 | Final form after slurry ([5]; Methyl THF): Form 1

COc1ccc(C(=O)NC2(C(=O)O)Cc3ccccc3C2)cc1OCCc1cccc(C)c1 [Form 2, 2-(4-methoxy-3-(3-methylphenethoxy)benzamido)-2,3-dihydro-1H-indene-2-carboxylic acid]
solubility at 24 h ([7]; aqueous buffer, thermodynamic from solid, read-out: Solubility, concentration (equilibrium)): 57 µg/mL (≈ 128 µM) | 24 hour solubility, greater than Form 1 by [7]: more than 30% | Final form after slurry ([5]; Ethyl Acetate): Form 2 | Final form after slurry ([5]; MEK): Form 1 | Final form after slurry ([5]; Methanol): Form 2 | Final form after slurry ([5]; Methyl THF): Form 2
